# Measurements published in patent publication US20080287532A1, “OXACYCLOPENTENE-2 DERIVATIVES” (priority 2007, published 2008).
# Like-named read-outs stand apart in the source and are kept apart here.
# Assays:
# [1] = test system: antibody production (AFC) after Adriamycin immunosuppression; assay: Adriamycin-induced immunosuppression model, antibody (AFC) response to SRBC; type: in vivo, mice
# Procedure: (§1) For induction of a primary humoral PFC response, C57BL/6J mice were immunized intraperitoneally with 0.1 ml of a 5% suspension of SRBC, containing 1×10^8 cells. On day 5 after immunization animals were sacrificed under deep ether anesthesia, spleens were dissected out and minced through a stainless steel mesh. Individual spleen cell suspensions were washed three times with Hank's BSS, nucleated cells number was determined with a haemocytometer, viability was assessed by exclusion of trypan blue and adjusted to 1×10^7 viable cells per ml in Medium 199 containing Earle's salts and L-glutamine.
# (§2) For the PFC assay, suspensions containing 1×10^6 spleen cells, 1×10^9 SRBCs and guinea pig serum (diluted 1:10, a source of complement), were introduced into a Cunningham chambers (100 μl volume) and incubated for 1 h at 37° C. The number of hemolytic plaques, produced by anti-SRBC IgM secreting plasma cells, was counted using a light microscope, and the number of PFC determined for each mice was expressed per 1×10^6 spleen cells and per whole spleen.
# Immunosupression in mice was induced by parentreral administration of Adriamycin or Cyclophosphamide. Mice were injected with Adriamycin intraperitoneally in a dose of 5 mg/kg one day before the immunization with SRBC. Cyclophosphamide was used in a dose of 100 mg/kg 24 hours before the antigen challenge with SRBC.
# Even in this extreme situation, administration of 2-methyl-3-ethoxycarbonyl-4-(2-methoxyphenyl)-5-methoxy-(1-oxacyclopentene-2, example 6) in dose 2.5 mg/kg produces a nearly 3 folds increase in antibody levels. […] (See FIG. 8).
# [2] = test system: cellular immune response (T-cells response) to SRBC; assay: Delayed Type Hypersensitivity test (DTH), foot pad edema after SRBC challenge; type: in vivo, mice
# Procedure: The method of Lagrange et al. was used. Mice were sensitized intravenously (iv) with 10^5 SRBC in saline. After 4 days, the mice were given eliciting dose of the antigen: 10^8 SRBS in 20 mcl of sterile saline into right hind paw, left hind paw was injected with 20 mcl of sterile saline. In 24 hours after challenge, the foot pad edema volume was measured using a caliper. The difference in volume (mcl) between the right paw (antigen-injected) and left paw (saline-injected) is calculated (Δ) and used as edema volume.
# [3] = test system: anti-SRBC IgM secreting plasma cells (antibody-forming cells, AFC); type: in vivo; conditions: for AFC number increase, % of control: mice immunized with SRBC
# Source text: Humoral-mediated immune response is routinely measured using the antibody-forming cell (AFC) assay. Primarily used for evaluating humoral immunity, this assay, in fact, evaluates overall immune competence including T- and B-cell function, antigen processing and presentation. Sheep Red Blood Cells (SRBC) are the most common T-dependent antigen used for this assay.
# Primary IgM response after SRBC administration was quantitatively estimated using a modified hemolytic plaque-forming cell assay
# Since SRBC are T-dependent antigen, a normal AFC response depends on multiple factors: antigen processing and presentation actuated by macrophages, appropriate T-cell signalling, B-cells differentiation, and affinity maturation of antibodies in plasma cells.
# as §1, §2
# [4] = Administered dose related to LD50; type: in vivo; conditions: Levamisol dose 2.5 mg/kg
# [5] = dose 10 mg/kg, mice sensitized with SRBC
Structure (SMILES),"DTH foot pad edema, % of control [2, 5]","AFC number increase, % of control ([3]; dose 2.5 mg/kg)","AFC number increase, % of control ([3]; dose 5 mg/kg)","AFC number increase, % of control ([3]; dose 10 mg/kg)",further results
COc1cccc2c1C(=O)c1c(O)c3c(c(O)c1C2=O)C[C@@](O)(C(=O)CO)C[C@@H]3O[C@H]1C[C@H](N)[C@H](O)[C@H](C)O1 [Adriamycin],–,–,–,–,"Total number of AFC, % of initial values ([1]; after Adriamycin administration (5 mg/kg i.p.)): 1-2%"
CCOC(=O)C1=C(C)OC(OC)C1CC(C)C (stereo not shown) [Example 1],300%,209%,275%,453%,–
CCCCCC1C(C(=O)OCC)=C(C)OC1OC (stereo not shown) [Example 2],220%,360%,331%,330%,–
CCCCCCCCCC1C(C(=O)OCC)=C(C)OC1OC (stereo not shown) [Example 3],250%,225%,289%,326%,–
CCCCCCCCCCCC1C(C(=O)OCC)=C(C)OC1OC (stereo not shown) [Example 4],240%,253%,330%,282%,–
CCOC(=O)C1=C(C)OC(OC)C1c1ccccc1 (stereo not shown) [Example 5],200%,202%,324%,259%,–
CCOC(=O)C1=C(C)OC(OC)C1c1ccccc1OC (stereo not shown) [Example 6],190%,260%,229%,440%,"Increase in antibody levels ([1]; dose 2.5 mg/kg, Adriamycin 5 mg/kg i.p. one day before SRBC immunization): ~3 folds"
CCOC(=O)C1=C(C)OC(OC)C1c1ccc(Cl)cc1Cl (stereo not shown) [Example 7],230%,269%,302%,358%,–
CCOC(=O)C1=C(C(Br)Br)OC(OC)C1c1ccccc1 (stereo not shown) [Example 8],260%,188%,276%,271%,–
COC1OC(C)=C(C(=O)O)C1CC(C)C (stereo not shown) [Example 9],360%,230%,320%,360%,–
COC1OC(C)=C(C(=O)[O-])C1CC(C)C.[Li+] (stereo not shown) [Example 10],360%,290%,320%,470%,–
CCCCCCC1C(C(=O)OCC)=C(C)OC1OC (stereo not shown) [Example 11],210%,245%,241%,287%,–
CCCCC1C(C(=O)OCC)=C(C)OC1OC (stereo not shown) [Example 12],230%,251%,239%,291%,–
CCOC(=O)C1=C(C)OC(OC)C1c1cccnc1 (stereo not shown) [Example 13],180%,168%,201%,191%,–
CCOC(=O)C1=C(C)OC(OC)C1c1cccc(OC)c1 (stereo not shown) [Example 14],200%,135%,187%,254%,–
CCOC(=O)C1=C(C)OC(OC)C1c1ccc(OC)cc1 (stereo not shown) [Example 15],160%,291%,312%,267%,–
CCOC(=O)C1=C(CC)OC(OC)C1c1ccc(C)cc1C (stereo not shown) [Example 16],140%,165%,192%,217%,–
"c1ccc([C@H]2CN3CCSC3=N2)cc1 [Levamisol, reference compound]",–,121%,–,–,"Administered dose as % of LD50 [4]: 10 % of LD50; Antibody response in Adriamycin immunosuppression model ([1]; Adriamycin-induced immunosuppression): no antibody response; DTH foot pad edema, % of control ([2]; Levamisol positive control, dose 2.5 mg/kg): 240%; Cellular immune response increase ([2]; after Levamisol administration): 240%; Increase in antibody formation ([3]; Levamisol positive reference, dose 2.5 mg/kg): 20%; Toxic effects (AFC not determined at higher doses) ([3]; mouse, in vivo): ND (toxic effects)"
